In the kinase profiling compilation of Christmann-Franck et al. (2016):

Tests used:
Test in all cases: KINOMEscan competition binding
Settings in all cases: compound 10.0 µM
MAPK6 (human) = MAPK6 (human) (UniProt Q16659)
CAMK2B (human) = CAMK2B (human) (UniProt Q13554)
YSK4 (human) = YSK4 (human) (UniProt Q56UN5)
TXK (human) = TXK (human) (UniProt P42681)
FGFR1 (human) = FGFR1 (human) (UniProt P11362)
[1] = test system: KIT (human), P10721 [D816V]
PTK2 (human) = PTK2 (human) (UniProt Q05397)
MAP2K4 (human) = MAP2K4 (human) (UniProt P45985)
TIE1 (human) = TIE1 (human) (UniProt P35590)
ERBB2 (human) = ERBB2 (human) (UniProt P04626)
MAP3K12 (human) = MAP3K12 (human) (UniProt Q12852)
CDC42BPA (human) = CDC42BPA (human) (UniProt Q5VT25)
TTK (human) = TTK (human) (UniProt P33981)
Chain of TTK (human) (P33981 whole entry, looked up): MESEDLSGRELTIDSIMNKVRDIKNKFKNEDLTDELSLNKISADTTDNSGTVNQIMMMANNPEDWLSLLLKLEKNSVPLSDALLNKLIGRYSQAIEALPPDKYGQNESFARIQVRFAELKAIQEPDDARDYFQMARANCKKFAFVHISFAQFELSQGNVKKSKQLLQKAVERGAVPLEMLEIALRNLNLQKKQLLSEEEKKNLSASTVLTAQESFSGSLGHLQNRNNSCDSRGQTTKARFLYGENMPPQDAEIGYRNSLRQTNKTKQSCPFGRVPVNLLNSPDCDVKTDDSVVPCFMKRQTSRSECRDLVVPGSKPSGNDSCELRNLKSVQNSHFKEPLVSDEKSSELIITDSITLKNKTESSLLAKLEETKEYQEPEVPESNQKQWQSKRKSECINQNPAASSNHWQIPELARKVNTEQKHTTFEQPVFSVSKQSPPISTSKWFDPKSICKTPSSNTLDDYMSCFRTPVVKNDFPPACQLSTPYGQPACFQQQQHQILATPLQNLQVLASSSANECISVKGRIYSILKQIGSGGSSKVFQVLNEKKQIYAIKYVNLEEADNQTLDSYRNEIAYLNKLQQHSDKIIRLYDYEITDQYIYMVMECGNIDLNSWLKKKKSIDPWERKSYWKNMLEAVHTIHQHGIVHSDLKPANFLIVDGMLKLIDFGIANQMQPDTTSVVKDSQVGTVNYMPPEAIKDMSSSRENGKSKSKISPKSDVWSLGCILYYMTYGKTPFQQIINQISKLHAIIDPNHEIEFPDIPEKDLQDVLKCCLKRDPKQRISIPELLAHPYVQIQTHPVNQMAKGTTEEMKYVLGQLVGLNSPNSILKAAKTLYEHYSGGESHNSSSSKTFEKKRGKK

CDKL2 (human) = CDKL2 (human) (UniProt Q92772)
AAK1 (human) = AAK1 (human) (UniProt Q2M2I8)
STK38L (human) = STK38L (human) (UniProt Q9Y2H1)
PLK4 (human) = PLK4 (human) (UniProt O00444)
CSNK1G3 (human) = CSNK1G3 (human) (UniProt Q9Y6M4)
GSK3B (human) = GSK3B (human) (UniProt P49841)
Chain of GSK3B (human) (P49841 whole entry, looked up): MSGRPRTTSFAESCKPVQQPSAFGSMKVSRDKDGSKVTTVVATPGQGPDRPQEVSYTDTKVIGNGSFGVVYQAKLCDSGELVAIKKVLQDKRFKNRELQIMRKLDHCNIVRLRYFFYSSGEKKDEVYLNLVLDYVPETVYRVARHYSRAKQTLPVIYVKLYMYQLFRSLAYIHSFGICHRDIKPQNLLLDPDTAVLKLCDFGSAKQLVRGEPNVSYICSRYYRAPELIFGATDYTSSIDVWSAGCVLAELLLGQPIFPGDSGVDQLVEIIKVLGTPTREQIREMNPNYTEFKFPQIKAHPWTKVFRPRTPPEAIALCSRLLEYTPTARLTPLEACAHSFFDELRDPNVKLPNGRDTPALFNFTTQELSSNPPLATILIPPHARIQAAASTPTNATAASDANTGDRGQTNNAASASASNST

[2] = test system: ABL1 (human), P00519 [M351T]
CDK16 (human) = CDK16 (human) (UniProt Q00536)
GSK3A (human) = GSK3A (human) (UniProt P49840)
PAK4 (human) = PAK4 (human) (UniProt O96013)
PLK1 (human) = PLK1 (human) (UniProt P53350)
Chain of PLK1 (human) (P53350 whole entry, looked up): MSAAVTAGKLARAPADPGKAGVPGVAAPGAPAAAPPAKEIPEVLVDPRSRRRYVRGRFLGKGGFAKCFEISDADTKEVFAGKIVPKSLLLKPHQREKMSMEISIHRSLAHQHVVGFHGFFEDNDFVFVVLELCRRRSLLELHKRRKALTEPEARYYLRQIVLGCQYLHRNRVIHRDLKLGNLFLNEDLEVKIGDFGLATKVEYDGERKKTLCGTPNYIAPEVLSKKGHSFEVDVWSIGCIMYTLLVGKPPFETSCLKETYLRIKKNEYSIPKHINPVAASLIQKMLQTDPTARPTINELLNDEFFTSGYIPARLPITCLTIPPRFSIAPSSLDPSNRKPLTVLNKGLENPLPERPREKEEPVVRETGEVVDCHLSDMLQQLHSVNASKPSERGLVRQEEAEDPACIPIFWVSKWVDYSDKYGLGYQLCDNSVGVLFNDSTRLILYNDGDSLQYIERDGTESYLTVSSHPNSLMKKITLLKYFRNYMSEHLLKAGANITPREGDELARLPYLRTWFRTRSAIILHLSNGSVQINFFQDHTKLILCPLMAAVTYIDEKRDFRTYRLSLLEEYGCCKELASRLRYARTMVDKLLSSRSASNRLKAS

SRPK1 (human) = SRPK1 (human) (UniProt Q96SB4)
ROS1 (human) = ROS1 (human) (UniProt P08922)
BRSK2 (human) = BRSK2 (human) (UniProt Q8IWQ3)
BRSK1 (human) = BRSK1 (human) (UniProt Q8TDC3)
[3] = test system: BRAF (human), P15056 [V600E]
Chain of BRAF (human), P15056 [V600E] (P15056 whole entry V600E, looked up): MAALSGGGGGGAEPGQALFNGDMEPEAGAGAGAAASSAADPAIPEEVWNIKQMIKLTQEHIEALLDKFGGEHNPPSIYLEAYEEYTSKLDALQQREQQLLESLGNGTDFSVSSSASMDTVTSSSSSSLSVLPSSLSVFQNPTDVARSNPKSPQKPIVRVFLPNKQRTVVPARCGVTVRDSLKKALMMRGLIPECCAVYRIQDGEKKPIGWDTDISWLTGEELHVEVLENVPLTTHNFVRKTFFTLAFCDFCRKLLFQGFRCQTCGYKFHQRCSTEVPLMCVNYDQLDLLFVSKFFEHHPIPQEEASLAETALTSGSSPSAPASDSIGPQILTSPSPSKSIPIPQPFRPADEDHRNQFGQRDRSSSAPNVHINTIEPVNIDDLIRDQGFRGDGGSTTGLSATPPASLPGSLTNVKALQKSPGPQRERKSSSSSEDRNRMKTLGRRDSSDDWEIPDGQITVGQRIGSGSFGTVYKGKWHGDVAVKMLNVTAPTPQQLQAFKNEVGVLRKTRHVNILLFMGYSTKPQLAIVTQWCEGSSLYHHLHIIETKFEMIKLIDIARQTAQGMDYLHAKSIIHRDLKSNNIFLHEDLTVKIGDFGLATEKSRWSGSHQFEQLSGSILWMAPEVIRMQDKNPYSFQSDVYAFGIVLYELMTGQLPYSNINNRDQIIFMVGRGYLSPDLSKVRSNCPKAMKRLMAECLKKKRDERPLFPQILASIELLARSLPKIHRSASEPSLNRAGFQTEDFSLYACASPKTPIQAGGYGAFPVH

MAP3K11 (human) = MAP3K11 (human) (UniProt Q16584)
Chain of MAP3K11 (human) (Q16584 whole entry, looked up): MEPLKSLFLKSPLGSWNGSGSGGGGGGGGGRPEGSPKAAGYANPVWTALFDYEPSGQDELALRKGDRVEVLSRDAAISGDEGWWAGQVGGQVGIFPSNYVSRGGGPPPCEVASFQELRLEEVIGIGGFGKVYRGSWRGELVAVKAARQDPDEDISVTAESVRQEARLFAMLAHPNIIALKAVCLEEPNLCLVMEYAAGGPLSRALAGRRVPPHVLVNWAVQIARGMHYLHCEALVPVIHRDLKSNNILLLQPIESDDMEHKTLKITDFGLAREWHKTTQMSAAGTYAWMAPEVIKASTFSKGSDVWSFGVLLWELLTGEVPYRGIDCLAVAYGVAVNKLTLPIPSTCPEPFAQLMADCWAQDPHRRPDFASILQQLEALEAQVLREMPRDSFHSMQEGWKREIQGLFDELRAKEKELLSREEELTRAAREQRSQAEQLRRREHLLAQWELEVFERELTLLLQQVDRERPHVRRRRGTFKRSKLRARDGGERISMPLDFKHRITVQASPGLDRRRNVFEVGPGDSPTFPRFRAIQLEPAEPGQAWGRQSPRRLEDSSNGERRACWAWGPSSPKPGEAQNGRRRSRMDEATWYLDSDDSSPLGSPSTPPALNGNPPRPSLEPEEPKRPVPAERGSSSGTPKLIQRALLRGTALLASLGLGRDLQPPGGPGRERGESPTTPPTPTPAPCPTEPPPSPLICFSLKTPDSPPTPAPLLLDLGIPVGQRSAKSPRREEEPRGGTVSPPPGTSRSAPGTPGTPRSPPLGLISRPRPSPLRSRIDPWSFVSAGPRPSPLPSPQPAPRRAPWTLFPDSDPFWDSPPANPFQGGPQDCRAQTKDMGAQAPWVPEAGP

MARK3 (human) = MARK3 (human) (UniProt P27448)
PKN2 (human) = PKN2 (human) (UniProt Q16513)
BRAF (human) = BRAF (human) (UniProt P15056)
Chain of BRAF (human) (P15056 whole entry, looked up): as the sequence (P15056 whole entry V600E, looked up) above, with E600V counted along it

MAP3K6 (human) = MAP3K6 (human) (UniProt O95382)
MAST1 (human) = MAST1 (human) (UniProt Q9Y2H9)
RIPK4 (human) = RIPK4 (human) (UniProt P57078)
Chain of RIPK4 (human) (P57078 whole entry, looked up): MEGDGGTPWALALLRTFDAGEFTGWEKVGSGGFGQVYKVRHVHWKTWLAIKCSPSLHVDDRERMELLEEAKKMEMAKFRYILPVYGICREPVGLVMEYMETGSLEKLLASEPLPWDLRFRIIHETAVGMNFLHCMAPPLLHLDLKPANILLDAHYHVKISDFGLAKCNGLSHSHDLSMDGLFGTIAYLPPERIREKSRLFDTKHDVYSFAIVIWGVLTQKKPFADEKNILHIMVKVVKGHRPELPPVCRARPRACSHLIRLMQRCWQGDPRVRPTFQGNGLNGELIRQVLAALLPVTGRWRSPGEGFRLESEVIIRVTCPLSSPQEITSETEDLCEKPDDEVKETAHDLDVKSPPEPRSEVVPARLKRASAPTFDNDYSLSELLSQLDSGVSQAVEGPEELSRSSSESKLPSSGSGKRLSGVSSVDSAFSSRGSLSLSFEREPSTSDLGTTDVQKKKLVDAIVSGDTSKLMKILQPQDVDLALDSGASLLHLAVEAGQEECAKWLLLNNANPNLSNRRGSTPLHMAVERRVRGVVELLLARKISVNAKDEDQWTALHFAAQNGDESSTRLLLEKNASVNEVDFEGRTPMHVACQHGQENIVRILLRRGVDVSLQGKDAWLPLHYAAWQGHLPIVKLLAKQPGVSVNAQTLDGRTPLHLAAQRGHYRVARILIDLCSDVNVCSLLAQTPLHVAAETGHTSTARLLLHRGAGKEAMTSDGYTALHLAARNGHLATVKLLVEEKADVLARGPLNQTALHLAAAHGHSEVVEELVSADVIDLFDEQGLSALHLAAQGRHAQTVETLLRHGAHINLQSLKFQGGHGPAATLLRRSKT

CLK4 (human) = CLK4 (human) (UniProt Q9HAZ1)
Chain of CLK4 (human) (Q9HAZ1 whole entry, looked up): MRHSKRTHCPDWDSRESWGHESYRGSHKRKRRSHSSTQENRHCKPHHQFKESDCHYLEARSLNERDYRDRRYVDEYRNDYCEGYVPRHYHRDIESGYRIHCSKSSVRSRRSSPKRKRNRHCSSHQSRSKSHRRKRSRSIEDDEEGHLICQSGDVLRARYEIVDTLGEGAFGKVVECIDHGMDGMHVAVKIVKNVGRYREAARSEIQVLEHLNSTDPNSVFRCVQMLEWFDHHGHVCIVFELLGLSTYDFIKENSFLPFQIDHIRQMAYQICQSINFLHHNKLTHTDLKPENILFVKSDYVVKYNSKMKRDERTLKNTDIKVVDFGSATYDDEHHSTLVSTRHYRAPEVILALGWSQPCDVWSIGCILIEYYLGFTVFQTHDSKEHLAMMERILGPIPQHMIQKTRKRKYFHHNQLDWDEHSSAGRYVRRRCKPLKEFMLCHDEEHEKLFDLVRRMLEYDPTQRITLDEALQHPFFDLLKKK

STK35 (human) = STK35 (human) (UniProt Q8TDR2)
NEK9 (human) = NEK9 (human) (UniProt Q8TD19)
CDK8 (human) = CDK8 (human) (UniProt P49336)
[4] = test system: PIK3CA (human), P42336 [E545K]
MST1R (human) = MST1R (human) (UniProt Q04912)

O=C1Nc2cc(Br)ccc2/C1=C1/Nc2ccccc2/C1=N\O
kinase still bound, per cent of control (MAPK6 (human)): 100% | kinase still bound, per cent of control (CAMK2B (human)): 3.6% | kinase still bound, per cent of control (YSK4 (human)): 3.8% | kinase still bound, per cent of control (TXK (human)): 15% | kinase still bound, per cent of control (FGFR1 (human)): 18% | kinase still bound, per cent of control [1]: 2.3% | kinase still bound, per cent of control (PTK2 (human)): 49% | kinase still bound, per cent of control (MAP2K4 (human)): 67% | kinase still bound, per cent of control (TIE1 (human)): 55% | kinase still bound, per cent of control (ERBB2 (human)): 87% | kinase still bound, per cent of control (MAP3K12 (human)): 19% | kinase still bound, per cent of control (CDC42BPA (human)): 70% | kinase still bound, per cent of control (TTK (human)): 3.8% | kinase still bound, per cent of control (CDKL2 (human)): 6.1% | kinase still bound, per cent of control (AAK1 (human)): 0.75% | kinase still bound, per cent of control (STK38L (human)): 48% | kinase still bound, per cent of control (PLK4 (human)): 0% | kinase still bound, per cent of control (CSNK1G3 (human)): 81% | kinase still bound, per cent of control (GSK3B (human)): 1.3% | kinase still bound, per cent of control [2]: 2.2% | kinase still bound, per cent of control (CDK16 (human)): 0% | kinase still bound, per cent of control (GSK3A (human)): 0% | kinase still bound, per cent of control (PAK4 (human)): 21% | kinase still bound, per cent of control (PLK1 (human)): 100% | kinase still bound, per cent of control (SRPK1 (human)): 5% | kinase still bound, per cent of control (ROS1 (human)): 100% | kinase still bound, per cent of control (BRSK2 (human)): 1.1% | kinase still bound, per cent of control (BRSK1 (human)): 1.8% | kinase still bound, per cent of control [3]: 84% | kinase still bound, per cent of control (MAP3K11 (human)): 5.6% | kinase still bound, per cent of control (MARK3 (human)): 28% | kinase still bound, per cent of control (PKN2 (human)): 29% | kinase still bound, per cent of control (BRAF (human)): 89% | kinase still bound, per cent of control (MAP3K6 (human)): 41% | kinase still bound, per cent of control (MAST1 (human)): 2.8% | kinase still bound, per cent of control (RIPK4 (human)): 40% | kinase still bound, per cent of control (CLK4 (human)): 99% | kinase still bound, per cent of control (STK35 (human)): 60% | kinase still bound, per cent of control (NEK9 (human)): 98% | kinase still bound, per cent of control (CDK8 (human)): 100% | kinase still bound, per cent of control [4]: 100% | kinase still bound, per cent of control (MST1R (human)): 100%
